Experimental data from patent US20250269041A1, “Mutual Prodrugs of Cromoglicic Acid” (Samdolite Pharmaceuticals, Inc., priority 2022, published 2025).
Like-named read-outs stand apart in the source and are kept apart here.

Tests used:
[1] = Procedure: Shed snakeskin, which is a model membrane to human skin used for preliminary permeability studies due to its similarity in composition to the human stratum corneum, was used as a skin model. The solution in the receiver compartment was maintained at 37° C. and stirred at 500 rpm with a magnetic stirrer. Before each experiment, the shed snakeskin was hydrated in 7.4 pH Dulbecco's Phosphate Buffered Saline (DPBS) containing 0.1% sodium azide solution for 24 hours at room temperature.
To emulate the esterase activity of human skin, a “sandwich” of shed snakeskin from a black rat snake (Pantherophis obsoletus) and a dialysis membrane with a molecular weight cut-off of 3.5 kDa (Cole-Palmer, Spectra Por S/P 3 EW-02900-04) was designed. Recombinant Human Carboxylesterase 2/CES2 (R&D Systems, #5657-CE) at a concentration 50 μg/mL was added between the snakeskin and the dialysis membrane (FIG. 1). A diffusion area of 0.64 cm^2 and a volume of 2 mL in the donor and receiver compartments were used. The temperature in Franz cell was controlled via thermocouple probe IT-23 (World Precision Instruments, Sarasota, FL, USA) placed in receiver compartment below the membrane “sandwich” through the sampling arm. All tested compounds were solubilized in 50% polyethylene glycol 400 (PEG 400)/DPBS at 25 mg/mL. PEG 400 was used to increase the water solubility of diethyl cromoglycate, cetirizine ethyl ester and cetirizine cromoglycate.
The system was allowed to equilibrate for one hour before each experiment. […] The receiver compartment was filled with 2 mL of 50% w/w polyethylene glycol 400 in DPBS to maintain a sink condition in the receiver solution. A sample was manually taken at 1-hour intervals from the receptor compartment and replaced with fresh DPBS at each time point. The concentration of drugs and their cumulative amount was plotted against time. Each experiment with each compound was performed in triplicate. The amount of the drug in the sample was estimated spectrophotometrically (NanoDrop™ UV-Visible spectrophotometer, Thermo Fisher Scientific Inc.). Light absorption was plotted as a function of concentration and fitted with a linear regression equation.

[2] = normal pH of 7.4; cited from earlier work
[3] = black rat snake (Pantherophis obsoletus), 0 h, 25 mg/mL
[4] = black rat snake (Pantherophis obsoletus), 25 mg/mL
[5] = black rat snake (Pantherophis obsoletus), 1 h, 25 mg/mL
[6] = black rat snake (Pantherophis obsoletus), 2 h, 25 mg/mL
[7] = black rat snake (Pantherophis obsoletus), 3 h, 25 mg/mL
[8] = black rat snake (Pantherophis obsoletus), 4 h, 25 mg/mL
[9] = black rat snake (Pantherophis obsoletus), 5 h, 25 mg/mL
[10] = black rat snake (Pantherophis obsoletus), 6 h, 25 mg/mL
[11] = black rat snake (Pantherophis obsoletus), 7 h, 25 mg/mL
[12] = black rat snake (Pantherophis obsoletus), 8 h, 25 mg/mL
[13] = black rat snake (Pantherophis obsoletus), 9 h, 25 mg/mL
[14] = black rat snake (Pantherophis obsoletus), 10 h, 25 mg/mL
[15] = black rat snake (Pantherophis obsoletus), 11 h, 25 mg/mL
[16] = black rat snake (Pantherophis obsoletus), 12 h, 25 mg/mL

| Compound | Cumulative concentration per unit area [1, 3] | mean lag times across shed snakeskin [1, 4] | Cumulative concentration per unit area [1, 5] | Cumulative concentration per unit area [1, 6] | Cumulative concentration per unit area [1, 7] | Cumulative concentration per unit area [1, 8] | Cumulative concentration per unit area [1, 9] | Cumulative concentration per unit area [1, 10] | Cumulative concentration per unit area [1, 11] | Cumulative concentration per unit area [1, 12] | Cumulative concentration per unit area [1, 13] | Cumulative concentration per unit area [1, 14] | Cumulative concentration per unit area [1, 15] | Cumulative concentration per unit area [1, 16] | mean lag times across shed snakeskin [1] | permeation across the shed snakeskin, times lower than the permeation of the lipophilic prodrug [1, 4] | logP [2] | transport compared with the permeation of lipophilic prodrugs diethyl cromoglycate and cetirizine ethyl ester [1] |
| --- | --- | --- | --- | --- | --- | --- | --- | --- | --- | --- | --- | --- | --- | --- | --- | --- | --- | --- |
| CCOC(=O)c1cc(=O)c2c(OCC(O)COc3cccc4oc(C(=O)OCC)cc(=O)c34)cccc2o1 [Example 50, Diethyl Cromoglicate] | 0 μg/cm^2 | 0.15 to 0.25 h | 23 μg/cm^2 | 55 μg/cm^2 | 95 μg/cm^2 | 145 μg/cm^2 | 195 μg/cm^2 | 235 μg/cm^2 | 256 μg/cm^2 | 320 μg/cm^2 | 390 μg/cm^2 | 435 μg/cm^2 | 470 μg/cm^2 | 495 μg/cm^2 |  |  |  |  |
| CCOC(=O)COCCN1CCN(C(c2ccccc2)c2ccc(Cl)cc2)CC1 (stereo not drawn) [Cetirizine Ethyl Ester, reference compound] |  |  |  |  |  |  |  |  |  |  |  |  |  |  | 0.15 to 0.25 h |  |  |  |
| O=C(O)c1cc(=O)c2c(OCC(O)COc3cccc4oc(C(=O)O)cc(=O)c34)cccc2o1 [Cromoglicate Sodium, Cromoglicate sodium, reference compound] | 0 μg/cm^2 |  | 5 μg/cm^2 | 15 μg/cm^2 | 25 μg/cm^2 | 30 μg/cm^2 | 45 μg/cm^2 | 50 μg/cm^2 | 73 μg/cm^2 | 80 μg/cm^2 | 93 μg/cm^2 | 98 μg/cm^2 | 112 μg/cm^2 | 119 μg/cm^2 |  | 3.5-5 times | −4.8 |  |
| O=C(COCCN1CCN(C(c2ccccc2)c2ccc(Cl)cc2)CC1)OC(COc1cccc2oc(C(=O)O)cc(=O)c12)COc1cccc2oc(C(=O)O)cc(=O)c12 (stereo not drawn) [Example 3] | 0 μg/cm^2 | 0.55 to 1.15 h | 2 μg/cm^2 | 12 μg/cm^2 | 28 μg/cm^2 | 53 μg/cm^2 | 89 μg/cm^2 | 112 μg/cm^2 | 142 μg/cm^2 | 176 μg/cm^2 | 215 μg/cm^2 | 256 μg/cm^2 | 295 μg/cm^2 | 350 μg/cm^2 |  |  |  | lower |
